# Data published in publication PMC6100582 (Molecules : A Journal of Synthetic Chemistry and Natural …, 2018).
# Where two headings read alike, the source gives them in different places.
# How the values were obtained:
# [1] = tested on: Mycobacterium marinum CAMP 5644; assay: Antimycobacterial susceptibility assay (MIC determination); format: cell-based; details: Mycobacterium marinum, CAMP5644, 504 h
# Method: The broth dilution micro-method in Middlebrook 7H9 medium (Difco, Lawrence, KS, USA) supplemented with ADC Enrichment (Becton, Dickinson and Comp.) was used to determine MIC as previously described. […] Bacterial inocula were prepared by transferring colonies from culture to sterile water. The cell density was adjusted to 0.5 McFarland units using a densitometer (Densi-La-Meter, LIAP, Riga, Latvia). The final inoculum was made by 1:1000 dilution of the suspension with sterile water. Drug-free controls, sterility controls and controls consisted of medium and DMSO (Sigma-Aldrich, St. Louis, MO, USA) alone were included. […] Ciprofloxacin (CIP), rifampicin (RIF) and isoniazid (INH) (Sigma-Aldrich, St. Louis, MO, USA) were used as the standards.
# [2] = tested on: Mycobacterium tuberculosis H37Ra; assay: as above; format: cell-based; details: 168 h, 7 days, 37 °C, alamarBlue
# Method: At log phase growth, a culture sample (10 mL) was centrifuged at 15,000 rpm/20 min using a bench-top centrifuge (MPW-65R, MPW Med Instruments, Poland). Following removal of the supernatant, the pellet was washed in fresh Middlebrook 7H9GC broth and re-suspended in fresh, ODAC-supplemented MB (10 mL). The turbidity was adjusted to match McFarland standard No. 1 (3 × 10^8 CFU) with MB broth. A further 1:20 dilution of the culture was then performed in MB broth. The antimicrobial susceptibility of M. tuberculosis was investigated in a 96-well plate format. In these experiments, sterile deionised water (300 µl) was added to all outer-perimeter wells of the plates to minimize evaporation of the medium in the test wells during incubation. Each evaluated compound (100 µL) was incubated with M. tuberculosis (100 µl). Dilutions of each compound were prepared in duplicate. For all synthesized compounds, final concentrations ranged from 1000 μg/mL to 8 μg/mL. All compounds were dissolved in DMSO, and subsequent dilutions were made in supplemented MB. […] Following incubation, 10% of alamarBlue (Difco, Lawrence, KS, USA) was mixed into each well, and readings at 570 nm and 600 nm were taken, initially for background subtraction and subsequently after 24 h reincubation. […] For non-interfering compounds, a blue colour in the well was interpreted as the absence of growth, and a pink colour was scored as growth.
# MM.1S (multiple myeloma) = assay: Antiproliferative screening (cytostatic activity); format: cell-based; details: Homo sapiens, MM1.S, 72 h, read-out: IC50 MM.1S
# Method: (§1) All human tumor cell lines were acquired from the American Type Culture Collection (ATCC, Manassas, VA, USA), except for the DND-41 cell line which was purchased from the Deutsche Sammlung von Mikroorganismen und Zellkulturen (DSMZ Leibniz-Institut, Braunschweig, Germany) and the Hap1 cell line which was purchased from Horizon Discovery (Waterbeach, UK). […] All media were supplemented with 10% FBS (HyClone, GE Healthcare Life Sciences, USA). […] After overnight incubation, cells were treated with test compounds at four different concentrations ranging from 100 to 0.8 µM. […] Images were taken every 3 h, with one field image per well under 10× magnification. All compounds were tested with duplicate data points and averaged.
# [3] = tested on: K-562 (chronic myeloid leukemia); assay: Antiproliferative screening (cytostatic activity); format: cell-based; details: Homo sapiens, K562, 72 h, read-out: IC50 K-562
# Method: as §1
# [4] = tested on: Z-138 (non-Hodgkin lymphoma); assay: Antiproliferative screening (cytostatic activity); format: cell-based; details: Homo sapiens, Z-138, 72 h, read-out: IC50 Z-138
# Method: as §1
# [5] = tested on: HCT-116 (colorectal carcinoma); assay: Antiproliferative screening (cytostatic activity); format: cell-based; details: Homo sapiens, HCT-116, 72 h, read-out: IC50 HCT-116
# Method: as §1
# [6] = tested on: NCI-H460 (lung carcinoma); assay: Antiproliferative screening (cytostatic activity); format: cell-based; details: Homo sapiens, NCI-H460, 72 h, read-out: IC50 NCI-H460
# Method: as §1
# [7] = tested on: Capan-1 (pancreatic adenocarcinoma); assay: Antiproliferative screening (cytostatic activity); format: cell-based; details: Homo sapiens, CAPAN-1, 72 h, read-out: IC50 Capan-1
# Method: as §1
# [8] = tested on: Hap1 (chronic myeloid leukemia); assay: Antiproliferative screening (cytostatic activity); format: cell-based; details: Homo sapiens, HAP1, 72 h, read-out: IC50 Hap1
# Method: (§2) Cytostatic activity was evaluated in vitro on nine different types of human tumor cell lines: Capan-1, Hap1, HCT-116, and NCI-H460, as well as hematological tumors such as DND-41, HL-60, K-562, MM.1S and Z-138 as described previously. All human tumor cell lines were acquired from the American Type Culture Collection (ATCC, Manassas, VA, USA), except for the DND-41 cell line which was purchased from the Deutsche Sammlung von Mikroorganismen und Zellkulturen (DSMZ Leibniz-Institut, Braunschweig, Germany) and the Hap1 cell line which was purchased from Horizon Discovery (Waterbeach, UK). Capan-1, Hap1, HL-60, K-562, Z-138, MM.1S and DND-41 were cultured in Iscove′s Modified Dulbecco′s Medium (IMDM, Gibco Life Technologies, Gaithersburg, MD, USA), HCT-116 were grown in McCoy′s 5A Medium (Gibco Life Technologies) and NCI-H460 were cultured in RPMI (Gibco Life Technologies). All media were supplemented with 10% FBS (HyClone, GE Healthcare Life Sciences, USA). Adherent cell lines HCT-116, Hap1, NCI-H460, and Capan-1 cells were seeded at a density between 400 and 1250 cells per well, in 384-well, black-walled, clear-bottomed tissue culture plates (Greiner Bio-One, Kremsmünster, Germany). After overnight incubation, cells were treated with test compounds at four different concentrations ranging from 100 to 0.8 µM. Suspension cell lines HL-60, K-562, Z-138, MM.1S, and DND-41 were seeded at densities ranging from 3000 to 10,000 cells per well in 384-well, black-walled, clear-bottomed tissue culture plates containing test compounds at the same four concentrations. The plates were incubated and monitored at 37 °C for 72 h in an IncuCyte (Essen BioScience Inc., Ann Arbor, MI, USA) for real-time imaging. Images were taken every 3 h, with one field image per well under 10× magnification. All compounds were tested with duplicate data points and averaged. […]
# [9] = tested on: HL-60 (acute myeloid leukemia); assay: Antiproliferative screening (cytostatic activity); format: cell-based; details: Homo sapiens, HL-60, 72 h, read-out: IC50 HL-60
# Method: as §2
# [10] = tested on: DND-41 (acute lymphoblastic leukemia); assay: Antiproliferative screening (cytostatic activity); format: cell-based, human; details: Homo sapiens, DND41, 72 h, 72 h, read-out: IC50 DND-41
# Method: as §2
# [11] = DXT and STS values in nM (footnote)
smiles,measurement,setting,value
"O=C(O)c1cn(C2CC2)c2cc(N3CCNCC3)c(F)cc2c1=O [CIP, ciprofloxacin, reference compound]",MIC,[1],0.3 µg/mL
same,MIC,[2],16 µg/mL
"COc1cc(NC(C)CCCNC(=O)CCC(=O)Nc2cccc(F)c2)c2ncccc2c1 (centres unmarked) [Compound 5a, N-(3-Fluorophenyl)-N′-{4-[(6-methoxyquinolin-8-yl)amino]pentyl}butanediamide]",melting point,,140 to 142 °C
"COc1cc(NC(C)CCCNC(=O)CCC(=O)Nc2ccc(F)cc2)c2ncccc2c1 (centres unmarked) [Compound 5b, N-(4-Fluorophenyl)-N′-{4-[(6-methoxyquinolin-8-yl)amino]pentyl}butanediamide]",melting point,,118 to 120 °C
"COc1cc(NC(C)CCCNC(=O)CCC(=O)Nc2cccc(Cl)c2)c2ncccc2c1 (centres unmarked) [Compound 5c, N-(3-Chlorophenyl)-N′-{4-[(6-methoxyquinolin-8-yl)amino]pentyl}butanediamide]",melting point,,156 to 158 °C
"COc1cc(NC(C)CCCNC(=O)CCC(=O)Nc2ccc(Cl)cc2)c2ncccc2c1 (centres unmarked) [Compound 5d, N-(4-Chlorophenyl)-N′-{4-[(6-methoxyquinolin-8-yl)amino]pentyl}butanediamide]",melting point,,152 to 153 °C
"COc1cc(NC(C)CCCNC(=O)CCC(=O)Nc2cccc(C(F)(F)F)c2)c2ncccc2c1 (centres unmarked) [Compound 5e, N′-{4-[(6-Methoxyquinolin-8-yl)amino]pentyl}-N-[3-(trifluoromethyl)phenyl]butanediamide]",melting point,,146 to 149 °C
"COc1cc(NC(C)CCCNC(=O)CCC(=O)Nc2ccc(C(F)(F)F)cc2)c2ncccc2c1 (centres unmarked) [Compound 5f, N′-{4-[(6-Methoxyquinolin-8-yl)amino]pentyl}-N-[4-(trifluoromethyl)phenyl]butanediamide]",melting point,,163 to 165 °C
"CC(=O)O[C@@]12CO[C@@H]1C[C@H](O)[C@@]1(C)C(=O)[C@H](O)C3=C(C)[C@@H](OC(=O)[C@H](O)[C@@H](NC(=O)OC(C)(C)C)c4ccccc4)C[C@@](O)([C@@H](OC(=O)c4ccccc4)[C@H]21)C3(C)C [DXT, docetaxel, reference compound]",IC50,MM.1S (multiple myeloma); [11],3.38 nM
same,IC50,[3]; [11],1.22 nM
same,IC50,[4]; [11],5.42 nM
same,IC50,[5]; [11],7.66 nM
same,IC50,[6]; [11],1.3 nM
same,IC50,[7]; [11],0.75 nM
same,IC50,[8]; [11],1.17 nM
same,IC50,[9]; [11],1.24 nM
same,IC50,[10]; [11],0.94 nM
"COc1cc([C@@H]2c3cc4c(cc3[C@@H](O[C@@H]3O[C@@H]5CO[C@@H](C)O[C@H]5[C@H](O)[C@H]3O)[C@H]3COC(=O)[C@H]23)OCO4)cc(OC)c1O [EPEG, etoposide, reference compound]",IC50,MM.1S (multiple myeloma); IncuCyte imaging,970 nM
same,IC50,[3]; IncuCyte imaging,10 nM
same,IC50,[4]; IncuCyte imaging,20 nM
same,IC50,[5]; IncuCyte imaging,1350 nM
same,IC50,[6]; IncuCyte imaging,90 nM
same,IC50,[7]; IncuCyte imaging,150 nM
same,IC50,[8]; IncuCyte imaging,40 nM
same,IC50,[9]; IncuCyte imaging,30 nM
same,IC50,[10]; IncuCyte imaging,30 nM
"NNC(=O)c1ccncc1 [INH, isoniazid, reference compound]",MIC,[1],64 µg/mL
same,MIC,[2],5 µg/mL
"CO[C@H]1/C=C/O[C@@]2(C)Oc3c(C)c(O)c4c(O)c(c(/C=N/N5CCN(C)CC5)c(O)c4c3C2=O)NC(=O)/C(C)=C\C=C\[C@H](C)[C@H](O)[C@@H](C)[C@@H](O)[C@@H](C)[C@H](OC(C)=O)[C@@H]1C [RIF, rifampicin, reference compound]",MIC,[1],2.2 µg/mL
"CN[C@@H]1C[C@H]2O[C@@](C)([C@@H]1OC)n1c3ccccc3c3c4c(c5c6ccccc6n2c5c31)C(=O)NC4 [STS, staurosporine, reference compound]",IC50,[8]; [11],3.56 nM
same,IC50,[9]; [11],13.1 nM
same,IC50,[10]; [11],6.96 nM
